Patent publication US10988466B2, “Heterocyclic derivatives useful as SHP2 inhibitors” (Jacobio Pharmaceuticals Co., Ltd., priority 2017, dated 2021)

Target: T1, SHP2 (Homo sapiens, UniProt Q06124)
T1 sequence (Q06124 1-593): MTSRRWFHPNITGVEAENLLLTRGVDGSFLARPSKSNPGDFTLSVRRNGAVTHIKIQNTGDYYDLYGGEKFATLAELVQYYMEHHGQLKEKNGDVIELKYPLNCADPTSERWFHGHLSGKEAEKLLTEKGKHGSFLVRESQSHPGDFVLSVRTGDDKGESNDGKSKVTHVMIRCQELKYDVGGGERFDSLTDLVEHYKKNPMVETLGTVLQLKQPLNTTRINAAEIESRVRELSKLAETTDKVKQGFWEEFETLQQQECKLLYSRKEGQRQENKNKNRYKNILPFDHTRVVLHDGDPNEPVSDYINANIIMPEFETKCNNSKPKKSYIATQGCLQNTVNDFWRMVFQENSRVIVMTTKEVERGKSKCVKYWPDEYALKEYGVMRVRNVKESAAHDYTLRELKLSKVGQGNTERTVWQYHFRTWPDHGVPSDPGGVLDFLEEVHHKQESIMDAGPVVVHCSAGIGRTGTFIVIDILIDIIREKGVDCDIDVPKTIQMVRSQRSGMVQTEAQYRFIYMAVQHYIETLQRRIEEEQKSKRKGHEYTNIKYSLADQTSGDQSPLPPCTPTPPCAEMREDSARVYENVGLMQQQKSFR
Experiment: biochemical
Conditions: read-out: SHP2 inhibition (%)@0.1 μM
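Further: compounds preincubated 30 min at room temperature in the assay mixture, activity referenced to a 0.5% (v/v) DMSO control taken as 100%, run in triplicate.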

SMILES | inhibition at 0.1 µM
Nc1nc(N2CCC3(CC2)c2ncccc2C[C@H]3N)cnc1Sc1ccnc(N)c1Cl [Example 4, (R)-1′-(6-amino-5-((2-amino-3-chloropyridin-4-yl)thio)pyrazin-2-yl)-5,6-dihydrospiro[cyclopenta[b]pyridine-7,4′-piperidin]-6-amine] | 20%
CC(=O)N1CC(F)(F)c2c(Sc3ncc(N4CCC5(CC4)c4ccccc4C[C@H]5N)nc3N)cccc21 [Example 6, (R)-1-(4-((3-amino-5-(2-amino-2,3-dihydrospiro[indene-1,4′-piperidin]-1′-yl)pyrazin-2-yl)thio)-3,3-difluoroindolin-1-yl)ethan-1-one] | 66%
Nc1nc(N2CCC3(CC2)Cc2cccnc2C[C@H]3N)cnc1Sc1ccnc(N)c1Cl [Example 9, (R)-1-(6-amino-5-((2-amino-3-chloropyridin-4-yl)thio)pyrazin-2-yl)-7,8′-dihydro-5′H-spiro [piperidine-4,6′-quinolin]-7′-amine] | 54%
COc1ccc2c(c1)CC1(CCN(c3cnc(Sc4ccnc(N)c4Cl)c(N)n3)CC1)[C@@H]2N [Example 11, (S)-1′-(6-amino-5-((2-amino-3-chloropyridin-4-yl)thio)pyrazin-2-yl)-5-methoxy-1,3-dihydrospiro [indene-2,4′-piperidin]-1-amine] | 74%
Nc1nc(N2CCC3(CC2)Cc2ccc(Cl)cc2[C@H]3N)cnc1Sc1ccnc(N)c1Cl [Example 15, (S)-1′-(6-amino-5-((2-amino-3-chloropyridin-4-yl)thio)pyrazin-2-yl)-6-chloro-1,3-dihydrospiro[indene-2,4′-piperidin]-1-amine] | 83%
N#Cc1cccc2c1CC1(CCN(c3cnc(Sc4ccnc(N)c4Cl)c(N)n3)CC1)[C@@H]2N [Example 16, (S)-1-amino-1′-(6-amino-5-((2-amino-3-chloropyridin-4-yl)thio)pyrazin-2-yl)-1,3-dihydrospiro [indene-2,4′-piperidine]-4-carbonitrile] | 75%
Nc1nc(N2CCC3(CC2)Cc2ccccc2[C@@H]3N)cnc1Sc1ccnc(N)c1Cl [Example 18, (R)-1′-(6-amino-5-((2-amino-3-chloropyridin-4-yl)thio)pyrazin-2-yl)-1,3-dihydrospiro[indene-2,4′-piperidin]-1-amine] | 35%
COc1cc2c(cn1)[C@@H](N)C1(CCN(c3cnc(Sc4ccnc(N)c4Cl)c(N)n3)CC1)C2 [Example 20] | 86%
Nc1nc(N2CCC3(CC2)Cc2ccncc2[C@H]3N)cnc1Sc1ccnc(N)c1Cl [Example 21, (S)-1′-(6-amino-5-((2-amino-3-chloropyridin-4-yl)thio)pyrazin-2-yl)-5,7-dihydrospiro[cyclopenta [c]pyridine-6,4′-piperidin]-7-amine] | 49%
Nc1nc(N2CCC3(CC2)Cc2cnccc2[C@H]3N)cnc1Sc1ccnc(N)c1Cl [Example 22, (S)-1′-(6-amino-5-((2-amino-3-chloropyridin-4-yl)thio)pyrazin-2-yl)-5,7-dihydrospiro [cyclopenta[c]pyridine-6,4′-piperidin]-5-amine] | 30%
Cc1ccc2c(c1)[C@@H](N)C1(CCN(c3cnc(Sc4ccnc(N)c4Cl)c(N)n3)CC1)C2 [Example 23, (S)-1′-(6-amino-5-((2-amino-3-chloropyridin-4-yl)thio)pyrazin-2-yl)-6-methyl-1,3-dihydro-spiro[indene-2,4′-piperidin]-1-amine] | 71%
C[S+]([O-])c1ccc2c(c1)[C@@H](N)C1(CCN(c3cnc(Sc4ccnc(N)c4Cl)c(N)n3)CC1)C2 (stereo partly drawn) [Example 25, (1S)-1′-(6-amino-5-((2-amino-3-chloropyridin-4-yl)thio)pyrazin-2-yl)-6-(methylsulfinyl)-1,3-dihydrospiro [indene-2,4′-piperidin]-1-amine] | 72%
CN(C)C(=O)c1ccc2c(c1)[C@@H](N)C1(CCN(c3cnc(Sc4ccnc(N)c4Cl)c(N)n3)CC1)C2 [Example 27, (S)-1-amino-1′-(6-amino-5-((2-amino-3-chloropyridin-4-yl)thio)pyrazin-2-yl)-N,N-dimethyl-1,3-dihydrospiro [indene-2,4′-piperidine]-6-carboxamide] | 79%
Nc1nc(N2CCC3(CC2)Cc2ccc(Br)cc2[C@H]3N)cnc1Sc1ccnc(N)c1Cl [Example 28, (S)-1′-(6-amino-5-((2-amino-3-chloropyridin-4-yl)thio)pyrazin-2-yl)-6-bromo-1,3-dihydro-spiro[indene-2,4′-piperidin]-1-amine] | 75%
Nc1nc(N2CCC3(CC2)Cc2c(Br)cccc2[C@H]3N)cnc1Sc1ccnc(N)c1Cl [Example 29, (S)-1′-(6-amino-5-((2-amino-3-chloropyridin-4-yl)thio)pyrazin-2-yl)-4-bromo-1,3-dihydro-spiro[indene-2,4′-piperidin]-1-amine] | 77%
Nc1nc(N2CCC3(CC2)Cc2c(ccc4ccccc24)[C@H]3N)cnc1Sc1ccnc(N)c1Cl [Example 31, (S)-1′-(6-amino-5-((2-amino-3-chloropyridin-4-yl)thio)pyrazin-2-yl)-1,3-dihydrospiro[cyclopenta [a]naphthalene-2,4′-piperidin]-3-amine] | 70%
COc1cc2c(cc1Cl)[C@@H](N)C1(CCN(c3cnc(Sc4ccnc(N)c4Cl)c(N)n3)CC1)C2 [Example 32, (S)-1′-(6-amino-5-((2-amino-3-chloropyridin-4-yl)thio)pyrazin-2-yl)-6-chloro-5-methoxy-1,3-dihydrospiro[indene-2,4′-piperidin]-1-amine] | 85%
Nc1ccc2c(c1)[C@@H](N)C1(CCN(c3cnc(Sc4ccnc(N)c4Cl)c(N)n3)CC1)C2 [Example 33, (S)-1′-(6-amino-5-((2-amino-3-chloropyridin-4-yl)thio)pyrazin-2-yl)-1,3-dihydrospiro[indene-2,4′-piperidine]-1,6-diamine] | 81%
Nc1nc(N2CCC3(CC2)Cc2ccc(-n4ccnc4)cc2[C@H]3N)cnc1Sc1ccnc(N)c1Cl [Example 36, (S)-1′-(6-amino-5-((2-amino-3-chloropyridin-4-yl)thio)pyrazin-2-yl)-6-(1H-imidazol-1-yl)-1,3-dihydrospiro [indene-2,4′-piperidin]-1-amine] | 65%
Nc1nc(N2CCC3(CC2)Cc2ccc(-n4cccc4)cc2[C@H]3N)cnc1Sc1ccnc(N)c1Cl [Example 37, (S)-1′-(6-amino-5-((2-amino-3-chloropyridin-4-yl)thio)pyrazin-2-yl)-6-(1H-pyrrol-1-yl)-1,3-dihydro-spiro[indene-2,4′-piperidin]-1-amine] | 76%
Nc1nc(N2CCC3(CC2)Cc2cc(F)c(Br)cc2[C@H]3N)cnc1Sc1ccnc(N)c1Cl [Example 38, (S)-1′-(6-amino-5-((2-amino-3-chloropyridin-4-yl)thio)pyrazin-2-yl)-6-bromo-5-fluoro-1,3-dihydrospiro[indene-2,4′-piperidin]-1-amine] | 75%
Nc1nc(N2CCC3(CC2)Cc2cc(F)c(F)cc2[C@H]3N)cnc1Sc1ccnc(N)c1Cl [Example 39, (S)-1′-(6-amino-5-((2-amino-3-chloropyridin-4-yl)thio)pyrazin-2-yl)-5,6-difluoro-1,3-dihydro-spiro[indene-2,4′-piperidin]-1-amine] | 67%
Nc1nc(N2CCC3(CC2)Cc2ccc(F)c(F)c2[C@H]3N)cnc1Sc1ccnc(N)c1Cl [Example 40, (S)-1′-(6-amino-5-((2-amino-3-chloropyridin-4-yl)thio)pyrazin-2-yl)-6,7-difluoro-1,3-dihydro-spiro[indene-2,4′-piperidin]-1-amine] | 74%
CP(C)(=O)c1cc2c(cc1F)CC1(CCN(c3cnc(Sc4ccnc(N)c4Cl)c(N)n3)CC1)[C@@H]2N [Example 41, (S)-(1-amino-1′-(6-amino-((2-amino-3-chloropyridin-4-yl)thio)pyrazin-2-yl)-5-fluoro-1,3-dihydrospiro[indene-2,4′-piperidin]-6-yl) dimethylphosphine oxide] | 69%
N#Cc1cc2c(cc1F)CC1(CCN(c3cnc(Sc4ccnc(N)c4Cl)c(N)n3)CC1)[C@@H]2N [Example 42, (S)-1-amino-1′-(6-amino-5-((2-amino-3-chloropyridin-4-yl)thio)pyrazin-2-yl)-5-fluoro-1,3-dihydro-spiro[indene-2, 4′-piperidine]-6-carbonitrile] | 49%
NC(=O)c1cc2c(cc1F)CC1(CCN(c3cnc(Sc4ccnc(N)c4Cl)c(N)n3)CC1)[C@@H]2N [Example 43, (S)-1-amino-1′-(6-amino-5-((2-amino-3-chloropyridin-4-yl)thio)pyrazin-2-yl)-5-fluoro-1,3-dihydro-spiro[indene-2, 4′-piperidine]-6-carboxamide] | 79%
NC(=O)Nc1ccc2c(c1)[C@@H](N)C1(CCN(c3cnc(Sc4ccnc(N)c4Cl)c(N)n3)CC1)C2 [Example 46, (S)-1-(1-amino-1′-(6-amino-5-((2-amino-3-chloropyridin-4-yl)thio)pyrazin-2-yl)-1,3-dihydrospiro [indene-2,4′-piperidin]-6-yl)urea] | 69%
Nc1nc(N2CCC3(CC2)Cc2cc(Br)ccc2[C@H]3N)cnc1Sc1ccnc(N)c1Cl [Example 47, (S)-1′-(6-amino-5-((2-amino-3-chloropyridin-4-yl)thio)pyrazin-2-yl)-5-bromo-1,3-dihydro-spiro[indene-2,4′-piperidin]-1-amine] | 81%
